Patent US8178552B2, “7-Azaindole derivatives and their use in the inhibition of c-Jun N-terminal kinase” (Eisai R&D Management Co., Ltd., priority 2008, dated 2012)

Tests used:
[1] = target: JNK3 (Homo sapiens, UniProt P53779); test: JNK3 SPA assay; format: biochemical; conditions: 3.33 μM ATP, GST-c-Jun substrate; read-out: IC50 against JNK3
Outline: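 Radiometric SPA using GST-c-Jun with [γ-33P]ATP in 25 mM HEPES pH 7.5 and 10 mM Mg acetate; the substrate solution held 3.33 µM ATP (JNK2/3) or 2 µM ATP (JNK1). Reactions ran 30 min at room temperature and were stopped with glutathione SPA beads plus 40 mM ATP. IC50 is the concentration halving c-Jun phosphorylation versus control.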

[2] = test system: c-Jun phosphorylation; test: LPS-induced c-Jun phosphorylation in spleen of mice (HTRF); format: in vivo, male C57/B16 mice; conditions: Mus musculus, po; 20 mg/kg p.o. 30 min before LPS 10 mg/kg i.p.; 1 hour after LPS; versus vehicle-treated animals; read-out: Percentage reduction in the level of P-c-Jun in spleen
Experimental: (§1) The studies were carried out in male C57/B16 mice. Compounds (20 mg/kg; p.o.) were administered 30 minutes before injection of lipopolysaccharide (LPS). LPS was administered intraperitoneally at a dose of 10 mg/kg. Animals were sacrificed 1 hour following LPS injection. Blood was collected into heparinized tubes for measurement of plasma TNFα levels and spleens were collected for the measurement of c-Jun phosphorylation. Plasma TNFα was measured using an ELISA kit purchased from R&D systems. Spleens were homogenised, extracted in high salt (250 mM NaCl) lysis buffer with phosphatase inhibitors and c-Jun phosphorylation was measured using HTRF. The suppressive effect of compounds was calculated as the percentage reduction of the TNFα level in plasma and P-c-Jun level in spleen as compared with the vehicle-treated animals.

[3] = test system: TNFα; test: LPS-induced TNFα suppression in mice (plasma TNFα, ELISA); format: in vivo, male C57/B16 mice; conditions: Mus musculus, po; 20 mg/kg p.o. 30 min before LPS 10 mg/kg i.p.; 1 hour after LPS; versus vehicle-treated animals; read-out: Percentage reduction in the level of TNFα in plasma
Experimental: as §1

Sequence of JNK3 (P53779 whole entry, species assumed): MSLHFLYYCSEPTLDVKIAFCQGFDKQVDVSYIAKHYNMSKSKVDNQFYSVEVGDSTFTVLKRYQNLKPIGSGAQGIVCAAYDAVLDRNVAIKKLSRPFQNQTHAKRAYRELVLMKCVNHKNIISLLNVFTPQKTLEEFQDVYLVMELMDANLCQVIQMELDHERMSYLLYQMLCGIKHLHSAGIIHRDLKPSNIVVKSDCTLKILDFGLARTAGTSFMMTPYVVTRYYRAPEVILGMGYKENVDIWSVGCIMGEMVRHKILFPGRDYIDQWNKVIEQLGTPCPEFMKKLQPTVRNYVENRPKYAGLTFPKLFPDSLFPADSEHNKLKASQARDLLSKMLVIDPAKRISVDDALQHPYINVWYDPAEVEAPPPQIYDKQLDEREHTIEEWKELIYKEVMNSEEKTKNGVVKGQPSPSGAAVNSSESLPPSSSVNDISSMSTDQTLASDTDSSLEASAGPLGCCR

| Compound | IC50 [1] [nM] | inhibition in vivo at 20 mg/kg [2] [%] | inhibition in vivo at 20 mg/kg [3] [%] |
| --- | --- | --- | --- |
| CC1CCC(c2cnc3[nH]cc(-c4cnn(C)c4)c3c2)CC1 (mixture of isomers) [Compound I-3, 3-(1-methyl-1H-pyrazol-4-yl)-5-(4-methylcyclohexyl)-1H-pyrrolo[2,3-b]pyridine] | 58 | 0 | 60 |
| Cn1cc(-c2c[nH]c3ncc([C@H]4CC[C@@H](N5CCOCC5)CC4)cc23)cn1 [Compound I-7, 4-((1s,4s)-4-(3-(1-methyl-1H-pyrazol-4-yl)-1H-pyrrolo[2,3-b]pyridin-5-yl)cyclohexyl)morpholine] | 60 | 18 | 63 |
| Cn1cc(-c2c[nH]c3ncc(C4=CCCC4)cc23)cn1 [Compound I-10, 5-cyclopentenyl-3-(1-methyl-1H-pyrazol-4-yl)-1H-pyrrolo[2,3-b]pyridine] | 17 | 75 | 62 |
| Cn1cc(-c2c[nH]c3ncc(C4CCCCC4)cc23)cn1 [Compound I-16, 5-cyclohexyl-3-(1-methyl-1H-pyrazol-4-yl)-1H-pyrrolo[2,3-b]pyridine] | 40 | 20 | 45 |
| Cn1cc(-c2c[nH]c3ncc(C4CCC5(CC4)OCCO5)cc23)cn1 [Compound I-19, 5-(1,4-Dioxa-spiro[4.5]dec-8-yl)-3-(1-methyl-1H-pyrazol-4-yl)-1H-pyrrolo[2,3-b]pyridine] | 25 | 32 | 9 |
| Cn1cc(-c2c[nH]c3ncc([C@H]4CC[C@@H](N5CCCC5)CC4)cc23)cn1 [Compound I-23, 3-(1-methyl-1H-pyrazol-4-yl)-5-((1s,4s)-4-(pyrrolidin-1-yl)cyclohexyl)-1H-pyrrolo[2,3-b]pyridine] | 126 | 2 | 61 |
| Cn1cc(-c2c[nH]c3ncc([C@H]4CC[C@H](N5CCCC5)CC4)cc23)cn1 [Compound I-24, 3-(1-methyl-1H-pyrazol-4-yl)-5-((1r,4r)-4-(pyrrolidin-1-yl)cyclohexyl)-1H-pyrrolo[2,3-b]pyridine] | 83 | 23 | 57 |
| CN1CCN([C@H]2CC[C@H](c3cnc4[nH]cc(-c5cnn(C)c5)c4c3)CC2)CC1 [Compound I-25, 3-(1-methyl-1H-pyrazol-4-yl)-5-((1r,4r)-4-(4-methylpiperazin-1-yl)cyclohexyl)-1H-pyrrolo[2,3-b]pyridine] | 90 | 25 | 80 |
| CN1CCN([C@H]2CC[C@@H](c3cnc4[nH]cc(-c5cnn(C)c5)c4c3)CC2)CC1 [Compound I-26, 3-(1-methyl-1H-pyrazol-4-yl)-5-((1s,4s)-4-(4-methylpiperazin-1-yl)cyclohexyl)-1H-pyrrolo[2,3-b]pyridine] | 94 | 16 | 71 |
| CN1CCCN([C@H]2CC[C@H](c3cnc4[nH]cc(-c5cnn(C)c5)c4c3)CC2)CC1 [Compound I-37, 5-((1r,4r)-4-(4-methyl-1,4-diazepan-1-yl)cyclohexyl)-3-(1-methyl-1H-pyrazol-4-yl)-1H-pyrrolo[2,3-b]pyridine] | 69 | -3 | 51 |
| Cn1cc(-c2c[nH]c3ncc([C@H]4CC[C@@H](N5CCCOCC5)CC4)cc23)cn1 [Compound I-39, 4-((1s,4s)-4-(3-(1-methyl-1H-pyrazol-4-yl)-1H-pyrrolo[2,3-b]pyridin-5-yl)cyclohexyl)-1,4-oxazepane] | 184 | 10 | 67 |
| Cn1cc(-c2c[nH]c3ncc([C@H]4CC[C@H](N5CCCOCC5)CC4)cc23)cn1 [Compound I-40, 4-((1r,4r)-4-(3-(1-methyl-1H-pyrazol-4-yl)-1H-pyrrolo[2,3-b]pyridin-5-yl)cyclohexyl)-1,4-oxazepane] | 129 | 35 | 61 |
| CC(C)N1CCN([C@H]2CC[C@H](c3cnc4[nH]cc(-c5cnn(C)c5)c4c3)CC2)CC1 [Compound I-43, 5-((1r,4r)-4-(4-isopropylpiperazin-1-yl)cyclohexyl)-3-(1-methyl-1H-pyrazol-4-yl)-1H-pyrrolo[2,3-b]pyridine] | 117 | 0 | 74 |
| CC(C)N1CCN([C@H]2CC[C@@H](c3cnc4[nH]cc(-c5cnn(C)c5)c4c3)CC2)CC1 [Compound I-44, 5-((1s,4s)-4-(4-isopropylpiperazin-1-yl)cyclohexyl)-3-(1-methyl-1H-pyrazol-4-yl)-1H-pyrrolo[2,3-b]pyridine] | 129 | 17 | 58 |
| Cn1cc(-c2c[nH]c3ncc([C@H]4CC[C@H](N(C)C)CC4)cc23)cn1 [Compound I-71, (1r,4r)-N,N-dimethyl-4-(3-(1-methyl-1H-pyrazol-4-yl)-1H-pyrrolo[2,3-b]pyridin-5-yl)cyclohexanamine] | 189 | 7 | 86 |
| Cn1cc(-c2c[nH]c3ncc([C@H]4CC[C@@H](N(C)C)CC4)cc23)cn1 [Compound I-72, (1s,4s)-N,N-dimethyl-4-(3-(1-methyl-1H-pyrazol-4-yl)-1H-pyrrolo[2,3-b]pyridin-5-yl)cyclohexanamine] | 259 | 15 | 84 |
| Cn1cc(-c2c[nH]c3ncc(C4=CC5CCC4C5)cc23)cn1 (centres unmarked) [Compound I-136, 5-(bicyclo[2.2.1]hept-2-en-2-yl)-3-(1-methyl-1H-pyrazol-4-yl)-1H-pyrrolo[2,3-b]pyridine] | 76 | 42 | 87 |
| Cn1cc(-c2c[nH]c3ncc(C4CC5CCC4C5)cc23)cn1 (centres unmarked) [Compound I-137, 5-(bicyclo[2.2.1]heptan-2-yl)-3-(1-methyl-1H-pyrazol-4-yl)-1H-pyrrolo[2,3-b]pyridine] | 45 | 15 | 45 |
| Cn1cc(-c2c[nH]c3ncc(C4=CCCC5C4C5(C)C)cc23)cn1 (centres unmarked) [Compound I-141, 5-(7,7-dimethylbicyclo[4.1.0]hept-2-en-2-yl)-3-(1-methyl-1H-pyrazol-4-yl)-1H-pyrrolo[2,3-b]pyridine] | 288 | 4 | 43 |
| Cn1cc(-c2c[nH]c3ncc([C@@H]4C[C@H]5O[C@@H]4CC5C#N)cc23)cn1 (stereo partly drawn) [Compound I-157, (1R,4R,5S)-5-(3-(1-methyl-1H-pyrazol-4-yl)-1H-pyrrolo[2,3-b]pyridin-5-yl)-7-oxabicyclo[2.2.1]heptane-2-carbonitrile] | 295 | – | – |
| Cn1cc(-c2c[nH]c3ncc([C@]4(F)CC[C@@H](N5CCOCC5)CC4)cc23)cn1 [Compound I-162, 4-((1s,4s)-4-fluoro-4-(3-(1-methyl-1H-pyrazol-4-yl)-1H-pyrrolo[2,3-b]pyridin-5-yl)cyclohexyl)morpholine] | > 2000 | – | – |
| CO[C@]1(c2cnc3[nH]cc(-c4cnn(C)c4)c3c2)CC[C@H](N2CCOCC2)CC1 [Compound I-163, 4-((1s,4s)-4-methoxy-4-(3-(1-methyl-1H-pyrazol-4-yl)-1H-pyrrolo[2,3-b]pyridin-5-yl)cyclohexyl)morpholine] | 1480 | – | – |
| Cn1cc(-c2c[nH]c3ncc(C4=C[C@H]5O[C@@H]4C[C@H]5C#N)cc23)cn1 [I-155 endo, (1R,2S,4R)-5-(3-(1-methyl-1H-pyrazol-4-yl)-1H-pyrrolo[2,3-b]pyridin-5-yl)-7-oxabicyclo[2.2.1]hept-5-ene-2-carbonitrile] | 174 | – | – |
| Cn1cc(-c2c[nH]c3ncc(C4=C[C@H]5O[C@@H]4C[C@@H]5C#N)cc23)cn1 [I-155 exo, (1R,2R,4R)-5-(3-(1-methyl-1H-pyrazol-4-yl)-1H-pyrrolo[2,3-b]pyridin-5-yl)-7-oxabicyclo[2.2.1]hept-5-ene-2-carbonitrile] | 219 | – | – |
| Mixture of 3-(1-methyl-1H-pyrazol-4-yl)-5-(3,5,5-trimethylcyclohex-1-enyl)-1H-pyrrolo[2,3-b]pyridine and 3-(1-methyl-1H-pyrazol-4-yl)-5-(3,3,5-trimethylcyclohex-1-enyl)-1H-pyrrolo[2,3-b]pyridine [Compound I-68] | 760 | – | – |
| Mixture of 3-(1-methyl-1H-pyrazol-4-yl)-5-(5-methylcyclohex-1-enyl)-1H-pyrrolo[2,3-b]pyridine and 3-(1-methyl-1H-pyrazol-4-yl)-5-(3-methylcyclohex-1-enyl)-1H-pyrrolo[2,3-b]pyridine [Compound I-29] | 98 | – | – |
| Mixture of 3-(1-methyl-1H-pyrazol-4-yl)-5-(6-methylcyclohex-1-enyl)-1H-pyrrolo[2,3-b]pyridine and 3-(1-methyl-1H-pyrazol-4-yl)-5-(2-methylcyclohex-1-enyl)-1H-pyrrolo[2,3-b]pyridine [Compound I-30] | 170 | – | – |
